# Results published in patent US20230235289A1, “METHOD FOR FIBROBLAST REJUVENATION BY MECHANICAL REPROGRAMMING AND REDIFFERENTIATION” (Paul Scherrer Institut, priority 2020, published 2023).
# Columns and labels:
# [1] = tested on: FC (3T3 clumps); assay: H3K9ac immunofluorescence; type: cell-based, mouse; conditions: TSA-treated FC compared to untreated FC
# Description: (§1) Cells embedded in Collagen-I gel were fixed with 4% Paraformaldehyde (Sigma) in PBS buffer (pH 7.4) for 25 min, followed by washing with PBS+100 mM glycine buffer (5 min×3). Cells were permeabilized using 0.5% Triton (Sigma-Aldrich) in PBS for 20 min, followed by washing with PBS-glycine buffer (5 min×3). After that, cells were blocked with 10% goat serum (ThermoFisher Scientific) in IF wash buffer (PBS+0.2% Triton+0.2% tween 20) for 3 h at room temperature. Next, cells were incubated overnight with different primary antibodies diluted in blocking buffer, followed by washing with IF wash buffer (15 min×3). […] Cell nuclei were stained with NucBlue Live Ready Probes (Molecular Probes; Thermo Fisher Scientific) in PBS for 10 min at room temperature, and filamentous actin was labeled using phalloidin Alexa Fluor 488 or 568 (1:100; Molecular Probes; Thermo Fisher Scientific) for 45 min.
# (§2) Fluorescent images of 3D spheroids and cells embedded in 3D Collagen-I gel were acquired by using Nikon AIR laser scanning confocal microscope (Nikon Instruments Inc, Japan), at either 20× magnification (Plan Apo 20× ELWD, NA 0.8) or 63× magnification (1.25 NA oil objective) with identical acquisition settings. […] The sprouting length of each spheroid embedded in 3D collagen matrix was measured from the large field fluorescent micrograph of actin using AngioTools software.
# [2] = tested on: FC (3T3 clumps); assay: Nuclear dynamics by time-lapse confocal microscopy of Hoechst 33342 stained nuclei; type: cell-based, mouse; conditions: TSA-treated FC compared to control FC
# Description: Nuclear dynamics were analyzed from the decorrelation of the nuclear images in time as described previously(37). Time-lapse live-imaging of nucleus stained with Hoechst 33342 (ThermoFisher Scientific) was done in confocal mode with time intervals of one minute for up to 32 minutes in PR, FC and FC+TSA conditions. One Pearson correlation coefficient (PCC) value was calculated from two lists of pixel intensity of the same nucleus captured in different time points with a certain time lag. For each cell, one PCC curve was drawn which connecting all PCCs (as y) with the increasing time lags (as x) as represented in dim color in FIG. 5A. The mean PCC curves for all cells in each condition, were drawn in bright color in FIG. 5A. The mean PCC curves in each condition were fitted by equation y=(1−α)+α exp(−t/τ)−η, where y refers to PCC value, t is time lags, fitting parameter α is drop rate, τ is time constant, η is noise.
# [3] = tested on: FC embedded in 3D collagen matrix (FCG); assay: pMLC immunofluorescence of sprouted cells in 3D collagen matrix; type: cell-based, mouse
# Description: as §1, §2
# [4] = tested on: RF embedded in fibrillary collagen matrix; assay: Collagen fibre remodeling/stiffening by matrix-embedded fibroblasts (immunostained collagen); type: cell-based, mouse; conditions: for collagen fiber stiffening: addition to spheroids sprouting in collagen matrix
# Excerpt: In order to characterize these RF in vitro, one compared the gel contraction abilities of cells derived from PR spheroids or from FC, both of which were equally embedded in the 3D collagen matrix. […] Fibroblasts are known to exert mechanical forces on the extracellular matrix surrounding them. […] Both RF and FCG embedded in fibrillary collagen matrix were able to remodel collagen fibrils into thicker bundles (FIG. 3F).
# Cells embedded in Collagen-I gel were fixed with 4% Paraformaldehyde (Sigma) in PBS buffer (pH 7.4) for 25 min, followed by washing with PBS+100 mM glycine buffer (5 min×3). Cells were permeabilized using 0.5% Triton (Sigma-Aldrich) in PBS for 20 min, followed by washing with PBS-glycine buffer (5 min×3). After that, cells were blocked with 10% goat serum (ThermoFisher Scientific) in IF wash buffer (PBS+0.2% Triton+0.2% tween 20) for 3 h at room temperature. Next, cells were incubated overnight with different primary antibodies diluted in blocking buffer, followed by washing with IF wash buffer (15 min×3). Cells were then incubated with corresponding fluorescent-labeled secondary antibodies diluted in 5% goat serum in IF wash buffer for 3 h at room temperature. Cell nuclei were stained with NucBlue Live Ready Probes (Molecular Probes; Thermo Fisher Scientific) in PBS for 10 min at room temperature, and filamentous actin was labeled using phalloidin Alexa Fluor 488 or 568 (1:100; Molecular Probes; Thermo Fisher Scientific) for 45 min.
# Fluorescent images of 3D spheroids and cells embedded in 3D Collagen-I gel were acquired by using Nikon AIR laser scanning confocal microscope (Nikon Instruments Inc, Japan), at either 20× magnification (Plan Apo 20× ELWD, NA 0.8) or 63× magnification (1.25 NA oil objective) with identical acquisition settings. In the Z dimension, each spheroid and 3D Collagen-I gel was scanned up to a depth of 50 μm, with a step size of 1 to 5 μm. Confocal images of either 512×512 or 1024×1024 pixels were obtained with an XY optical resolution of 0.42 μm or 0.21 μm, respectively. Time lapse imaging was done in confocal mode for up to 60 min and 18 h with 60 s and 30 m time intervals, respectively. Bright-field images were acquired using the EVOS FL Cell Imaging System (Thermo Fisher Scientific). For gel contraction assay, images of collagen gel at different days of cell growth were acquired with a mobile camera at a fixed magnification. The fluorescence intensity was measured for each protein in its respective channel and the number of gH2Ax foci per nucleus was determined using custom-written code in Fiji (NI) MATLAB (Mathworks) and IMARIS8. The sprouting length of each spheroid embedded in 3D collagen matrix was measured from the large field fluorescent micrograph of actin using AngioTools software.
# [5] = tested on: 6 day-old spheroids of NIH3T3 mouse embryonic fibroblasts; assay: Cell sprouting from partially reprogrammed spheroids in 3D collagen matrix (AngioTools); type: cell-based; conditions: addition to spheroids sprouting in collagen matrix
# Excerpt: These 6 day-old spheroids were embedded in collagen gels and cultured for at least 2 days (FIG. 1A). Within few hours, cells originating from the spheroids progressively invaded the collagen matrix and migrated either individually as unicellular sprouts (single cells) or collectively as complex capillary-like structures (FIG. 1B). In addition to cell invasion, morphological modifications in the spheroid core itself were detected. While the spheroids initially appeared as a compact structure, subsequent cell migration induced spheroid expansion occurred and led to breaches in the spheroid core. […]
# as §2, with “The fluorescence intensity was measured for each protein in its respective channel and the number of gH2Ax foci per nucleus was determined using custom-written code in Fiji (NI) MATLAB (Mathworks) and IMARIS8. The” for “The”
smiles,measurement,setting,value
"CC(/C=C/C(=O)NO)=C\[C@@H](C)C(=O)c1ccc(N(C)C)cc1 [TSA, Trichostatin A]",H3K9ac levels,[1],significant increase
same,nuclear dynamics,[2],increase in nuclear dynamics
same,level of pMLC,[3]; TSA-treated FCG compared to untreated FCG and RF,higher level
same,contractility upon exposure to ECM-related cues,[3]; fibroblasts treated with the HDAC inhibitor,increased contractility
C[C@@H](N)[C@H]1CC[C@H](C(=O)Nc2ccncc2)CC1 [Y-27632],remodeling of collagen fibrils around RF,[4]; 25 μM,very less or no remodeling
Cc1ccc2c(c1)C(=O)C1(O)CCN(c3ccccc3)C1=N2 (stereo not shown) [blebbistatin],average sprouting length,[5],significant reduction
same,collagen fiber stiffening,[4],drop
"C=C1[C@@H](C)[C@H]2[C@H](Cc3ccccc3)NC(=O)[C@]23[C@H](OC(C)=O)/C=C/[C@@](C)(O)C(=O)[C@@H](C)C/C=C/[C@H]3[C@@H]1O [cytoD, cytochalasin D]",average sprouting length,[5],significant reduction
same,remodeling of collagen fibrils around RF,[4]; 4 μM,very less or no remodeling
same,collagen fiber stiffening,[4],drop
